# Results taken from ChEMBL document CHEMBL1139112, “Solid-phase analogue synthesis of caspase-3 inhibitors via palladium-catalyzed amination of 3-bromopyrazinones” (Bioorg Med Chem Lett, 2007).
# Key:
# [1] = biological target: T1, Caspase-7 (Homo sapiens, UniProt P55210); experiment: Inhibition of human recombinant caspase 7
# T1 sequence (P55210 whole entry): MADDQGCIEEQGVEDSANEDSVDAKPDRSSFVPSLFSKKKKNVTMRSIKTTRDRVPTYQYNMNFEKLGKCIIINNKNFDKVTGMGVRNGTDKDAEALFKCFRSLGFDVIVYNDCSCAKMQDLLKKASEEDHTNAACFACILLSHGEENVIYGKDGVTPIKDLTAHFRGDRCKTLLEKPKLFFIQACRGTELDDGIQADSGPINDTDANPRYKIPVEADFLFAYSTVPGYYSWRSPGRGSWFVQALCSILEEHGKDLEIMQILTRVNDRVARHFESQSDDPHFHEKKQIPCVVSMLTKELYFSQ
# [2] = biological target: Caspase-8 (Homo sapiens, UniProt Q14790); experiment: Inhibition of human recombinant caspase 8
# Chain of Caspase-8 (Q14790 217-374 limits assumed): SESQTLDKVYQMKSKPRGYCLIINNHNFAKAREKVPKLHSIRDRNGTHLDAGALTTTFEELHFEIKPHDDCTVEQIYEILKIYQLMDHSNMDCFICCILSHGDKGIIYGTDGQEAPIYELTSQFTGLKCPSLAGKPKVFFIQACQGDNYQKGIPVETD
# Chain of Caspase-8 (Q14790 385-479 limits assumed): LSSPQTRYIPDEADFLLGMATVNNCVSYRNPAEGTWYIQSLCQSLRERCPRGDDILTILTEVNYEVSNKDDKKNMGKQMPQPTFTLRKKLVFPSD
# [3] = biological target: T2, Caspase-1 (Homo sapiens, UniProt P29466); experiment: Inhibition of human recombinant caspase 1
# T2 sequence (P29466 whole entry): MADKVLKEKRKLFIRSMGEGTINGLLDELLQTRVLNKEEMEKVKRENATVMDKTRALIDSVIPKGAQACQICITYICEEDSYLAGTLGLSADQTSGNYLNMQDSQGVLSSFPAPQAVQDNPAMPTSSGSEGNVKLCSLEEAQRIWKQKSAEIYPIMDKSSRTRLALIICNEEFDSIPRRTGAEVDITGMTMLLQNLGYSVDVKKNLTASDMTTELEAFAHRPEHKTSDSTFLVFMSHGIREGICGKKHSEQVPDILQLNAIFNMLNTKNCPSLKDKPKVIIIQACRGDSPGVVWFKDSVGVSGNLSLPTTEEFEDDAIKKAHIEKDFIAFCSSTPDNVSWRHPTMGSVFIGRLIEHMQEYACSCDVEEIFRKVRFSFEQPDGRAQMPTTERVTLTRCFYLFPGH
# [4] = biological target: T3, Caspase-3 (Homo sapiens, UniProt P42574); experiment: Inhibition of human recombinant caspase 3
# T3 sequence (P42574 whole entry): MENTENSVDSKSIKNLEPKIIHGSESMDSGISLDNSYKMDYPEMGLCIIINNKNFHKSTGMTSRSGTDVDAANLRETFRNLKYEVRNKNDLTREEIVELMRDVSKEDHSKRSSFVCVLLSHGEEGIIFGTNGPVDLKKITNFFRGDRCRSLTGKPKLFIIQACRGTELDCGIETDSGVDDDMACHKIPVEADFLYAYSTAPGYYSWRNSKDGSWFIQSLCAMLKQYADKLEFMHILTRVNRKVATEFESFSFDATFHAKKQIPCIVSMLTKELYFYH
# [5] = biological target: T3, Caspase-3; experiment: Inhibition of human recombinant caspase 3 in NT2 by whole cell assay
Structure (SMILES),IC50 [1],IC50 [2],IC50 [3],IC50 [4],IC50 [5]
CCC(C(=O)N[C@@H](CC(=O)O)C(=O)CCCc1ccccc1)n1cc(C(C)(C)C)nc(NC(CC(C)C)C(=O)O)c1=O (stereo partly specified),3490 nM,> 10000 nM,5490 nM,100 nM,–
CCC(C(=O)N[C@@H](CC(=O)O)C(=O)CCCc1ccccc1)n1cc(C(C)(C)C)nc(Nc2nnn[nH]2)c1=O (stereo partly specified),8 nM,14 nM,9 nM,5 nM,19400 nM
CCC(C(=O)N[C@@H](CC(=O)O)C(=O)CCCc1ccccc1)n1cc(C(C)(C)C)nc(Nc2ccc3c(c2)OCCO3)c1=O (stereo partly specified),280 nM,1000 nM,330 nM,28 nM,–
CCC(C(=O)N[C@@H](CC(=O)O)C(=O)CCCc1ccccc1)n1cc(C(C)(C)C)nc(NCCc2cccs2)c1=O (stereo partly specified),920 nM,300 nM,2310 nM,50 nM,–
CCC(C(=O)N[C@@H](CC(=O)O)C(=O)CCCc1ccccc1)n1cc(C(C)(C)C)nc(NCc2cc(OC)cc(OC)c2)c1=O (stereo partly specified),800 nM,3050 nM,320 nM,160 nM,–
CCCCCCN(C)CC(=O)[C@H](CC(=O)O)NC(=O)C(CC)n1cc(C(C)(C)C)nc(Nc2nnn[nH]2)c1=O (stereo partly specified),64.7 nM,163 nM,3.4 nM,6.6 nM,6070 nM
